The values below come from ChEMBL document CHEMBL1150833, “Five novel highly oxygenated diterpenes of Orthosiphon stamineus from Myanmar” (2001).

Assay [1] can be described thus: Antiproliferative activity against mouse Colon 26-L5 cells after 4 days by MTT assay. Type of assay: functional. The settings on record: 96 h, read-out: ED50 (the source's name). (In general: Tetrazolium assays rely on reduction of a dye to a coloured formazan, in cell work by metabolically active cells.)
Assay [2] deals with HT-1080. Description: Antiproliferative activity against human HT1080 cells after 4 days by MTT assay. The format is functional. To be noted: HT-1080, 96 h, read-out: ED50 (the source's name).

Structures are written as SMILES. Converted amounts (≈) assume the structure as drawn.

In the case of `COc1ccc(-c2cc(=O)c3cc(OC)c(OC)c(OC)c3o2)cc1OC`, the EC50 amounted to 31.4 µg/mL (≈ 84.3 µM) in assay [1] and 74.8 µg/mL (≈ 201 µM) in assay [2].
Consider `COc1cc(/C=C/C(=O)OCCc2ccc(O)cc2)ccc1O`, for which the results for the EC50 in assay [1] and in assay [2] were 33.7 µg/mL (≈ 107 µM) and 47.1 µg/mL (≈ 150 µM), respectively.
As to `COc1ccc(-c2cc(=O)c3c(OC)c(OC)c(OC)cc3o2)cc1`, the results for the EC50 in assay [1] and in assay [2] were 8.1 µg/mL (≈ 23.7 µM) and 4.5 µg/mL (≈ 13.1 µM), respectively.
In the case of `COc1ccc(-c2cc(=O)c3c(O)c(OC)c(OC)cc3o2)cc1O` [EUPATORIN], the EC50 stood at 3.7 µg/mL (≈ 10.7 µM) in assay [1] and 8.8 µg/mL (≈ 25.6 µM) in assay [2].
With `O=c1[nH]cc(F)c(=O)[nH]1` [FLUOROURACIL], the EC50 in assay [1] is 0.015 µg/mL (≈ 0.115 µM); in assay [2], 0.48 µg/mL (≈ 3.69 µM).
As to `COc1ccc(-c2cc(=O)c3c(O)c(O)c(OC)cc3o2)cc1` [LADANEIN], the values for the EC50 in assay [1] and in assay [2] were 2.3 µg/mL (≈ 7.32 µM) and 3 µg/mL (≈ 9.55 µM), respectively.
The matching figures for `C=C[C@H]1[C@@H](OC(=O)c2ccccc2)[C@H]2[C@](O)(C(=O)[C@@]1(C)O)[C@H](OC(C)=O)C[C@H]1C(C)(C)[C@H](O)[C@H](OC(C)=O)[C@H](OC(=O)c3ccccc3)[C@@]12C` [NEOORTHOSIPHOL A]: 38.8 µg/mL (≈ 56 µM) and 96.3 µg/mL (≈ 139 µM).
Regarding `C=C/C(=C\[C@H]1C(=O)[C@H](OC(C)=O)C[C@H]2C(C)(C)[C@H](O)[C@H](OC(C)=O)[C@H](OC(=O)c3ccccc3)[C@]12C)C(C)=O` [NORSTAMINONE A], the EC50 in assay [1] worked out at 12.8 µg/mL (≈ 23.7 µM); in assay [2] it was 23.2 µg/mL (≈ 42.9 µM).
In the case of `C=C[C@@]1(C)C[C@@H](OC(=O)c2ccccc2)[C@H]2[C@](O)(C1=O)[C@H](OC(C)=O)C[C@H]1C(C)(C)[C@H](O)[C@H](OC(C)=O)[C@H](OC(=O)c3ccccc3)[C@@]12C` [ORTHOSIPHOL A], the EC50 was 63.1 µg/mL (≈ 93.2 µM) in assay [1] and > 100 µg/mL in assay [2].
Turning to `C=C[C@@]1(C)C[C@@H](OC(=O)c2ccccc2)[C@H]2[C@](O)(C1=O)[C@H](OC(C)=O)C[C@H]1C(C)(C)[C@H](OC(C)=O)[C@H](O)[C@H](OC(=O)c3ccccc3)[C@@]12C` [ORTHOSIPHOL B], the EC50 in assay [1] worked out at 28.1 µg/mL (≈ 41.5 µM); in assay [2], 57.9 µg/mL (≈ 85.6 µM).
The matching figures for `C=C[C@@]1(C)C[C@@H](OC(=O)c2ccccc2)[C@H]2[C@](O)(C1=O)[C@H](OC(C)=O)C[C@H]1C(C)(C)[C@H](O)[C@H](O)[C@H](OC(=O)c3ccccc3)[C@@]12C` [ORTHOSIPHOL K]: 13.8 µg/mL (≈ 21.7 µM) and 21.8 µg/mL (≈ 34.3 µM).
For the molecule `C=C[C@]1(C)C(=O)[C@]2(O)[C@H](OC(C)=O)C[C@H]3C(C)(C)[C@H](O)[C@H](OC(C)=O)[C@H](OC(=O)c4ccccc4)[C@]3(C)[C@H]2[C@H](OC(=O)c2ccccc2)[C@@H]1O` [ORTHOSIPHOL L], the EC50 was 24.7 µg/mL (≈ 35.7 µM) in assay [1] and 20.6 µg/mL (≈ 29.7 µM) in assay [2].
As for `C=C[C@@]1(C)CC(=O)[C@H]2[C@](O)(C1=O)[C@H](OC(C)=O)C[C@H]1C(C)(C)[C@H](O)[C@H](OC(C)=O)[C@H](OC(=O)c3ccccc3)[C@@]12C` [ORTHOSIPHOL M], the EC50 in assay [1] was 31.3 µg/mL (≈ 54.9 µM); in assay [2], 81.7 µg/mL (≈ 143 µM).
The matching figures for `C=C[C@@]1(C)CC(=O)[C@H]2[C@](O)(C1=O)[C@H](O)C[C@H]1C(C)(C)[C@H](OC(=O)c3ccccc3)[C@H](OC(C)=O)[C@H](OC(=O)c3ccccc3)[C@@]12C` [ORTHOSIPHOL N]: 35.1 µg/mL (≈ 55.5 µM) and 18.6 µg/mL (≈ 29.4 µM).
